This is an account of results in PubChem BioAssay AID602215 (Sanford-Burnham Center for Chemical Genomics, 2012).

The structures appear in SMILES notation. The source made the active and inactive calls.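 The calls were made as follows: active = IC50 of 20 µM or lower; inactive = the rest.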

The subject of this experiment is HL-1 cardiomyocytes, H2O2 injury, ATP luminescence, 2 h. Nature of the experiment: H2O2-induced HL-1 cell death suppression – ATP luminescence, dose response (AID 602215).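 Also: potency is for protection so actives raise ATP signal against peroxide damage.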
As to `CCOC(=O)c1ccc(NC(=O)c2nc[nH]c2C(=O)NCCCCCNC(=O)OC(C)(C)C)cc1`, the IC50 (commonly the concentration at which inhibition is half-maximal) was > 79 µM (inactive).

Take `COc1ccc(-n2cc(-c3ccccc3)c3c(N4CCOCC4)ncnc32)cc1`: the IC50 is > 79 µM (inactive).

As for `CCN1C(=O)/C(=C/c2nc3ccccc3c(=O)[nH]2)c2ccccc21`, the IC50 is 5.41 µM.

Regarding `COc1cc(C(=O)NCC(=O)N/N=C/c2ccc(-c3cccc([N+](=O)[O-])c3)o2)cc(OC)c1OC`, the IC50 was 9.15 µM.

For the compound `COc1cc(-c2cc3nc(NCCOc4ccccc4)ccn3n2)cc(OC)c1OC`, the IC50 is > 79 µM (inactive).

Turning to `O=C(C(=O)N(Cc1ccccc1)Cc1ccccc1)c1c(-c2ccccc2)[nH]c2ccccc12`, the IC50 is > 79 µM (inactive).

For `O=C(N/N=C/c1ccccn1)c1cc(-c2cccc3ccccc23)n[nH]1`, the IC50 was > 79 µM (inactive).

As for `Cc1nc(N2CCN(c3ccccn3)CC2)c2c(C)c(C(=O)Nc3ccc(F)cc3)sc2n1`, the IC50 is > 79 µM (inactive).

In the case of `COc1ccc(-c2ccc3c(c2)S(=O)(=O)c2cccc(C(=O)NC[C@@H]4CCCO4)c2C3=O)cc1OC`, the IC50 is > 79 µM (inactive).

Regarding `COc1ccc(C(=O)O/N=C(/c2ccccc2)c2ccncc2)cc1OC`, the IC50 is > 79 µM (inactive).

With `Nc1c(C(=O)N/N=C/c2cccnc2)oc2nc(-c3ccco3)cc(-c3ccco3)c12`, the IC50 was > 79 µM (inactive).

Turning to `COc1ccc(-c2cc(-c3nnc(COC(=O)c4ccncc4)o3)c3ccccc3n2)cc1OC`, the IC50 was > 79 µM (inactive).

`O=C(COC(=O)c1ccccc1C(=O)OCC(=O)NCCc1c[nH]c2ccccc12)NCCc1c[nH]c2ccccc12`: the IC50 was > 79 µM (inactive).

On to `CCn1c(O)c(/C=N/N=C/c2ccccc2)c2ccc(C3=NNC(=O)CC3)cc21`, for which the IC50 is > 79 µM (inactive).

Take `Cc1ccc(-n2cc(-c3ccccc3)c3c(N4CCOCC4)ncnc32)cc1`: the IC50 is > 79 µM (inactive).

Consider `CC(=O)Nc1cc(-c2cccc(NS(C)(=O)=O)c2)cn2c(-c3cccc(C(C)=O)c3)cnc12`, for which the IC50 is 11.4 µM.

As to `O=S(=O)(c1ccccc1)N1CCN(c2nc(-c3cccnc3)nc3ccccc23)CC1`, the IC50 was > 79 µM (inactive).

Turning to `COC(=O)c1cc2c(-c3ccccc3)cc3ccccn3c-2c1C(=O)OC`, the IC50 is > 79 µM (inactive).

With `CCCNC(=O)c1ccc(N2CCC3(CC2)CC(c2ccccc2)=NO3)c(NC(=O)c2ccco2)c1`, the half-inhibitory concentration (IC50) is 3.22 µM.

Turning to `COc1ccccc1NC(=O)c1cc(-c2ccc(OC)c(OC)c2)nc2ccccc12`, the IC50 was > 79 µM (inactive).

With `O=C(NCC(=O)N(Cc1ccccc1)C(C(=O)NC1CCCCC1)c1ccco1)c1ccco1` (centres undefined), the IC50 was > 79 µM (inactive).

`COCCCN(Cc1ccco1)C(=O)Cn1ncc2c([nH]c3ccccc32)c1=O`: the IC50 was > 79 µM (inactive).

On to `Cc1cc(N)n(-c2nc(-c3cccnc3)nc3ccccc23)n1`, for which the IC50 is > 79 µM (inactive).

With `COc1cc(-c2cc(NC=O)c3ncc(-c4ccc(C(C)=O)cc4)n3c2)cc(OC)c1OC`, the IC50 was 4.1 µM.

For the compound `COc1cccc(-c2cnc3c(NC=O)cc(-c4cc(OC)c(OC)c(OC)c4)cn23)c1`, the IC50 was > 79 µM (inactive).

In the case of `O=C(CN1CCN(c2ccccn2)CC1)Nc1ccc([N+](=O)[O-])cc1C(=O)Nc1ccccc1F`, the IC50 was > 79 µM (inactive).

As to `Cc1ccc(C)c(NC(=O)C(Sc2nc3ccccc3c(=O)n2CC(C)C)c2ccccc2)c1` (centres undefined), the IC50 is > 79 µM (inactive).

As for `COc1cc(C(=O)N/N=C/c2ccc(OC(=O)c3ccccc3)c(OC)c2)ccc1O`, the IC50 is > 79 µM (inactive).

Regarding `O=C(CCCN1C(=O)c2cccc3cccc(c23)C1=O)N1CCN(c2ccccc2O)CC1`, the IC50 was 7.51 µM.

Turning to `CC(=O)Nc1ccc(Nc2nc(-c3sc(NC(C)=O)nc3C)cs2)cc1`, the IC50 was 20.1 µM (inactive).

Turning to `NC(=O)c1nsc(C(=O)N(c2ccccc2)C(C(=O)NCc2ccc(F)cc2)c2ccc(O)cc2)c1N` (centres undefined), the IC50 is > 79 µM (inactive).

Consider `COc1ccc(-c2nn(-c3ccccc3)cc2C(=O)Nc2nccs2)cc1`, for which the IC50 is 13.7 µM.

For `COCCN1Cc2cccc(C(=O)Nc3cccc(-c4nc5ccccc5[nH]4)c3)c2C1=O`, the IC50 was > 79 µM (inactive).

Consider `CC(=O)Nc1ccc(C(=O)N/N=C/c2ccccc2OC(=O)c2ccc(Cl)cc2)cc1`, for which the IC50 was > 79 µM (inactive).

On to `O=C(CNC(=O)c1[nH]cnc1C(=O)NC(c1ccccc1)c1ccccc1)OCc1ccccc1`, for which the IC50 was 69.7 µM (inactive).

In the case of `COc1ccc(COc2cc(-c3cccc(OC)c3)nc3ccc(NC(=O)c4cccnc4)cc23)cc1`, the IC50 was 4.53 µM.

As to `COc1cc(OC)cc(-c2cc3nc(C)c(CCC(=O)Nc4nc(C)cs4)c(C)n3n2)c1`, the IC50 is > 79 µM (inactive).

Consider `COc1cc(/C=C(\C#N)c2nc3ccc(C)cc3[nH]2)c([N+](=O)[O-])cc1OC`, for which the IC50 was > 79 µM (inactive).

Turning to `CN(C(=O)c1sc2nc(N3CCOCC3)c3c(c2c1N)CCCC3)c1ccccc1`, the IC50 was 8.63 µM.

Turning to `O=C(COC(=O)c1c2c(nc3ccccc13)/C(=C/c1cccc([N+](=O)[O-])c1)CCC2)NC1CCS(=O)(=O)C1` (centres undefined), the IC50 is > 79 µM (inactive).

`CC1(c2ccccc2)NC(=O)N(CC(=O)Nc2cccc(/C=C/c3ccccn3)c2)C1=O` (centres undefined): the half-inhibitory concentration (IC50) was 14 µM.

Consider `Fc1ccc(-n2cc(-c3ccccc3)c3c(N4CCOCC4)ncnc32)cc1`, for which the IC50 is > 79 µM (inactive).

As for `CCOc1ncccc1C(=O)Nc1cccc(-c2nc3cccnc3s2)c1`, the IC50 was > 79 µM (inactive).

For `Cn1c(=O)c2[nH]c(NN=Cc3ccc(Br)cc3)nc2n(C)c1=O`, the IC50 is > 79 µM (inactive).

For the compound `NC(=O)c1nsc(C(=O)N(Cc2ccco2)C(C(=O)NCc2ccccc2)c2ccc(O)cc2)c1N` (centres undefined), the IC50 is 45.3 µM (inactive).

As for `CCOc1cc(/C=C/c2ccc3cccc([N+](=O)[O-])c3n2)ccc1OCC(=O)N(C)C`, the IC50 was > 79 µM (inactive).

For the compound `COc1ccc(-c2cc(NC=O)c3ncc(-c4ccc(C(C)=O)cc4)n3c2)cn1`, the IC50 is > 79 µM (inactive).

As to `CC(C)(C)OC(=O)C[C@@H]1C/C=C\C[C@@H](CC(=O)N[C@@H](CO)Cc2ccccc2)C(=O)NC[C@@H](c2ccccc2)OC1=O`, the IC50 is > 79 µM (inactive).

As to `COc1cc(OC)cc(C(=O)Nc2ccc(C(=O)Nc3ccccc3OC)cc2)c1`, the IC50 was > 79 µM (inactive).

As to `CC(=O)Nc1cccc(-c2cc(NC=O)c3ncc(-c4ccc(C(C)=O)cc4)n3c2)c1`, the IC50 was 6.11 µM.

As to `C=CCOC(=O)C1=C[C@H](c2cn(C(C)=O)c3ccccc23)C[C@H](OCc2ccc(CO)cc2)O1`, the IC50 was > 79 µM (inactive).

Consider `NC(=O)COc1ccc2oc(=O)cc(-c3cc4ccccc4o3)c2c1`, for which the IC50 is 18.3 µM.

With `Cc1cc(C)c(C)c(S(=O)(=O)N2CCN(C(=O)c3cc(=O)[nH]c4ccccc34)CC2)c1C`, the IC50 was 18.9 µM.

For `CN(C)S(=O)(=O)c1ccc2[nH]cc(/C=C/c3nc4ccccc4c(=O)n3-c3ccccc3)c2c1`, the IC50 was > 79 µM (inactive).

With `COc1cccc(-c2cnc3c(NC=O)cc(-c4ccc(O)c(OC)c4)cn23)c1`, the IC50 was > 79 µM (inactive).

Regarding `CCOc1ccc(-n2cc(-c3ccccc3)c3c(N4CCOCC4)ncnc32)cc1`, the IC50 was 24 µM (inactive).

As to `CC(C)(C)NC(=O)COC(=O)c1c2c(nc3ccccc13)CCC2`, the IC50 was 49.1 µM (inactive).

As to `COc1cccc(CN(C)C(=O)C(Cc2ccccc2)NC(=O)c2ccccc2)c1OC` (centres undefined), the IC50 is > 79 µM (inactive).

On to `Cc1[nH]c2ccccc2c1/C=N/NC(=O)c1cc(-c2cccs2)[nH]n1`, for which the IC50 is > 79 µM (inactive).

`NC(=O)c1nsc(C(=O)N(c2ccccc2F)C(C(=O)NCc2ccccc2)c2ccc(O)cc2)c1N` (centres undefined): the IC50 is 15.8 µM.

With `COc1ccc(-c2cc(C(=O)N(C)Cc3ccc(OC)c(OC)c3OC)c3ccccc3n2)cc1OC`, the IC50 is 11.6 µM.

Consider `NC(=O)c1nsc(C(=O)N(c2ccccc2)C(C(=O)NC2CCCC2)c2ccc3ncccc3c2)c1N` (centres undefined), for which the IC50 was 5.51 µM.

In the case of `NC(=O)c1nsc(C(=O)N(c2ccccc2F)C(C(=O)NCc2ccc(F)cc2)c2ccc(O)cc2)c1N` (centres undefined), the IC50 is > 79 µM (inactive).

Consider `CCOc1cc(/C=C(\C#N)C(=O)Nc2ccc(S(N)(=O)=O)cc2)ccc1OCCN1CCOCC1`, for which the IC50 is > 79 µM (inactive).

`COc1cc(-c2cc(C(=O)NCc3ccco3)c3ccccc3n2)cc(OC)c1OC`: the IC50 is 23.5 µM (inactive).

As for `COc1ccc(-c2cc(NC(C)=O)c3ncc(-c4cccc(C(C)=O)c4)n3c2)cc1OC`, the IC50 was > 79 µM (inactive).

For `CC(C)c1ccccc1NC(=O)COC(=O)c1c2c(nc3ccccc13)CCN(Cc1ccccc1)C2`, the IC50 was 41.4 µM (inactive).

Turning to `CC(=O)c1ccc(-c2cnc3c(NC=O)cc(-c4cccc(NS(C)(=O)=O)c4)cn23)cc1`, the IC50 is 12.9 µM.

Take `COc1ccc(Nc2nc(C(=O)N3CCc4cc(OC)c(OC)cc4C3)cs2)cc1`: the IC50 was 8.5 µM.

`Cn1c(=O)c2[nH]c(NN=Cc3cccc(Br)c3)nc2n(C)c1=O`: the IC50 is > 79 µM (inactive).

Turning to `O=C(NCC(=O)N(Cc1cccs1)C(C(=O)NC1CCCCC1)c1ccco1)c1ccco1` (centres undefined), the IC50 was > 79 µM (inactive).

`O=C(Nc1cccc(NC(=O)c2ccc([N+](=O)[O-])o2)c1)c1ccco1`: the IC50 is > 79 µM (inactive).

For `COc1cc(C(=O)N/N=C/c2sc(N3CCOCC3)nc2-c2ccccc2)cc(OC)c1OC`, the IC50 is 48.4 µM (inactive).

For `COc1cc(/C=C/c2nnc3c4ccccc4ncn23)cc(OC)c1OC`, the IC50 was 13.8 µM.

For `COc1cccc(-c2cnc3c(NC(C)=O)cc(-c4cccc(NS(C)(=O)=O)c4)cn23)c1`, the IC50 was 6.83 µM.

With `COc1ccc(OC)c(/C=N/NC(=O)c2cc3c(OC)c(OC)ccc3[nH]2)c1`, the IC50 is 1.82 µM.

For the compound `CC(=O)c1ccc(-c2cnc3c(NC=O)cc(-c4cccc(C(=O)N(C)C)c4)cn23)cc1`, the IC50 is 12 µM.

For `COc1cc(NC(=O)c2cc3ccccc3cc2OC)ccc1NC(=O)c1cccs1`, the IC50 was 4.22 µM.

Turning to `COc1cc(-c2cc(NC(C)=O)c3ncc(-c4ccc(C(C)=O)cc4)n3c2)cc(OC)c1OC`, the IC50 was > 79 µM (inactive).
